Publication PMC9447987, “Long-term memory CD8^+ T cells specific for SARS-CoV-2 in individuals who received the BNT162b2 mRNA vaccine” (Nature Communications, 2022)
Read-outs that look alike come from different tables or passages of the source.

What was measured:
HLA-A*24:02 = HLA-A*24:02 (Homo sapiens, UniProt P04439, D101N/D140Y/D185E/E176V/E190D/F33S/G103R/G107R/I119L/I121M/I306V/K335N/L105A/L180Q/L300P/N151K/N90K/Q86E/Q94H/R106L/R138H/R89G/T104I/T345S/V100E/W191G/Y123F); assay: HLA stabilization assay using RMA-S-A2402 cells; type: binding; conditions: RMA-S-A2402 cells
[1] = test system: HLA-A*24:02-restricted CD8+ T cells; type: cell-based, human; conditions: for Freq of responder (%): of 17 vaccinated HLA-A*24:02+ individuals (Fig. 4b); for Resp: number of responders (individuals with epitope-specific CD8+ T cells): of 17 vaccinated HLA-A*24:02+ individuals, 1 μM peptide
[2] = Suppl. Fig. 3b (for Fig. 4a, 4b), peptide(-) 14.8, 26 °C (Maximum) 32.7
[3] = convalescent donor C2, 45.290 weeks since PCR-confirmed diagnosis, peptide-pulsed C1R-A2402
[4] = convalescent donor C3, 2.430 weeks since PCR-confirmed diagnosis, peptide-pulsed C1R-A2402
[5] = convalescent donor C4, 35.000 weeks since PCR-confirmed diagnosis, peptide-pulsed C1R-A2402
[6] = convalescent donor C5, 41.430 weeks since PCR-confirmed diagnosis, peptide-pulsed C1R-A2402
[7] = convalescent donor C6, 20.000 weeks since PCR-confirmed diagnosis, peptide-pulsed C1R-A2402
[8] = convalescent donor C7, 21.710 weeks since PCR-confirmed diagnosis, peptide-pulsed C1R-A2402
[9] = convalescent donor C8, 47.860 weeks since PCR-confirmed diagnosis, peptide-pulsed C1R-A2402
[10] = convalescent donor C9, 21.860 weeks since PCR-confirmed diagnosis, peptide-pulsed C1R-A2402
[11] = convalescent donor C10, 24.570 weeks since PCR-confirmed diagnosis, peptide-pulsed C1R-A2402
[12] = convalescent donor C11, 24.290 weeks since PCR-confirmed diagnosis, peptide-pulsed C1R-A2402
[13] = vaccinated donor V1, 19.000 weeks since 2nd dose, C1R-A2402 pre-pulsed with 1 μM peptide
[14] = vaccinated donor V2, 9.570 weeks since 2nd dose, C1R-A2402 pre-pulsed with 1 μM peptide
[15] = vaccinated donor V3, 8.860 weeks since 2nd dose, C1R-A2402 pre-pulsed with 1 μM peptide
[16] = vaccinated donor V4, 10.430 weeks since 2nd dose, C1R-A2402 pre-pulsed with 1 μM peptide
[17] = vaccinated donor V5, 10.570 weeks since 2nd dose, C1R-A2402 pre-pulsed with 1 μM peptide
[18] = vaccinated donor V6, 9.570 weeks since 2nd dose, C1R-A2402 pre-pulsed with 1 μM peptide
[19] = vaccinated donor V7, 10.140 weeks since 2nd dose, C1R-A2402 pre-pulsed with 1 μM peptide
[20] = vaccinated donor V8, 9.860 weeks since 2nd dose, C1R-A2402 pre-pulsed with 1 μM peptide
[21] = vaccinated donor V9, 20.570 weeks since 2nd dose, C1R-A2402 pre-pulsed with 1 μM peptide
[22] = vaccinated donor V10, 2.000 weeks since 2nd dose, C1R-A2402 pre-pulsed with 1 μM peptide
[23] = vaccinated donor V11, 1.430 weeks since 2nd dose, C1R-A2402 pre-pulsed with 1 μM peptide
[24] = vaccinated donor V12, 1.000 weeks since 2nd dose, C1R-A2402 pre-pulsed with 1 μM peptide
[25] = vaccinated donor V13, 9.000 weeks since 2nd dose, C1R-A2402 pre-pulsed with 1 μM peptide
[26] = vaccinated donor V14, 2.000 weeks since 2nd dose, C1R-A2402 pre-pulsed with 1 μM peptide
[27] = vaccinated donor V15, 6.860 weeks since 2nd dose, C1R-A2402 pre-pulsed with 1 μM peptide
[28] = vaccinated donor V16, 8.860 weeks since 2nd dose, C1R-A2402 pre-pulsed with 1 μM peptide
[29] = vaccinated donor V17, 4.140 weeks since 2nd dose, C1R-A2402 pre-pulsed with 1 μM peptide

Row | Sequence | MFI, HLA-A2402 (APC), representative staining (HLA-A*24:02; [2]) | IFNg-producing cells among CD8 T cells (%) [1, 3] | IFNg-producing cells among CD8 T cells (%) [1, 4] | IFNg-producing cells among CD8 T cells (%) [1, 5] | IFNg-producing cells among CD8 T cells (%) [1, 6] | IFNg-producing cells among CD8 T cells (%) [1, 7] | IFNg-producing cells among CD8 T cells (%) [1, 8] | IFNg-producing cells among CD8 T cells (%) [1, 9] | IFNg-producing cells among CD8 T cells (%) [1, 10] | IFNg-producing cells among CD8 T cells (%) [1, 11] | IFNg-producing cells among CD8 T cells (%) [1, 12] | IFNg-producing cells among CD8 T cells (%) [1, 13] | IFNg-producing cells among CD8 T cells (%) [1, 14] | IFNg-producing cells among CD8 T cells (%) [1, 15] | IFNg-producing cells among CD8 T cells (%) [1, 16] | IFNg-producing cells among CD8 T cells (%) [1, 17] | IFNg-producing cells among CD8 T cells (%) [1, 18] | IFNg-producing cells among CD8 T cells (%) [1, 19] | IFNg-producing cells among CD8 T cells (%) [1, 20] | IFNg-producing cells among CD8 T cells (%) [1, 21] | further results
1 | VFKNIDGYF [S-VF9] | 38.0 | 0.300% | 0.050% | 1.030% | 0.000% | 0.310% | 0.000% | 0.370% | 0.490% | 0.000% | 0.000% | 0% | 0% | 0% | 0.114% | 0.154% | 0% | 0.163% | 0% | 0% | IFNg-producing cells among CD8 T cells (%) [1, 22]: 0%; IFNg-producing cells among CD8 T cells (%) [1, 23]: 0%; IFNg-producing cells among CD8 T cells (%) [1, 24]: 0.427%; IFNg-producing cells among CD8 T cells (%) [1, 25]: 0%; IFNg-producing cells among CD8 T cells (%) [1, 26]: 0.009%; IFNg-producing cells among CD8 T cells (%) [1, 27]: 0%; IFNg-producing cells among CD8 T cells (%) [1, 28]: 0.255%; IFNg-producing cells among CD8 T cells (%) [1, 29]: 0.147%
2 | RVYSTGSNVF [S-RF10] | 48.0 | 1.394% | 0.025% | 0.000% | 0.000% | 0.000% | 0.000% | 0.600% | 0.000% | 0.420% | 0.000% | 0% | 0% | 0.19% | 0.522% | 1.045% | 0% | 0% | 0.127% | 0% | Freq of responder (%) [1]: 5.9%; Resp: number of responders (individuals with epitope-specific CD8+ T cells) [1]: one; IFNg-producing cells among CD8 T cells (%) [1, 22]: 0.033%; IFNg-producing cells among CD8 T cells (%) [1, 23]: 0.679%; IFNg-producing cells among CD8 T cells (%) [1, 24]: 0.143%; IFNg-producing cells among CD8 T cells (%) [1, 25]: 0.275%; IFNg-producing cells among CD8 T cells (%) [1, 26]: 0.249%; IFNg-producing cells among CD8 T cells (%) [1, 27]: 0.267%; IFNg-producing cells among CD8 T cells (%) [1, 28]: 0.199%; IFNg-producing cells among CD8 T cells (%) [1, 29]: 0%
3 | AYSNNSIAI [S-AI9] | 36.2 | 0.000% | 0.037% | 0.000% | 0.000% | 0.000% | 0.180% | 0.160% | 0.510% | 0.000% | 0.000% | 0.918% | 0% | 0% | 0% | 0.54% | 0.014% | 0% | 0% | 0.488% | IFNg-producing cells among CD8 T cells (%) [1, 22]: 0%; IFNg-producing cells among CD8 T cells (%) [1, 23]: 0.134%; IFNg-producing cells among CD8 T cells (%) [1, 24]: 0%; IFNg-producing cells among CD8 T cells (%) [1, 25]: 0.166%; IFNg-producing cells among CD8 T cells (%) [1, 26]: 0%; IFNg-producing cells among CD8 T cells (%) [1, 27]: 0%; IFNg-producing cells among CD8 T cells (%) [1, 28]: 0%; IFNg-producing cells among CD8 T cells (%) [1, 29]: 0%
4 | YYVGYLQPRTF [S-YF11] | 26.7 | 0.461% | 0.120% | 0.300% | 0.738% | 0.200% | 0.450% | 0.930% | 0.000% | 0.090% | 0.000% | 0.469% | 0.861% | 0.031% | 0% | 0% | 0.019% | 0% | 0% | 0% | IFNg-producing cells among CD8 T cells (%) [1, 22]: 0%; IFNg-producing cells among CD8 T cells (%) [1, 23]: 0%; IFNg-producing cells among CD8 T cells (%) [1, 24]: 0%; IFNg-producing cells among CD8 T cells (%) [1, 25]: 0.015%; IFNg-producing cells among CD8 T cells (%) [1, 26]: 0%; IFNg-producing cells among CD8 T cells (%) [1, 27]: 0.234%; IFNg-producing cells among CD8 T cells (%) [1, 28]: 0.141%; IFNg-producing cells among CD8 T cells (%) [1, 29]: 0.134%
5 | VFVSNGTHWF [S-VFF10] | 22.3 | 0.490% | 0.090% | 0.710% | 0.000% | 0.560% | 0.000% | 0.420% | 0.110% | 0.000% | 0.000% | 0% | 0% | 0% | 0.485% | 0.489% | 0% | 0% | 0% | 3.184% | MFI, HLA-A2402 (APC), representative staining (HLA-A*24:02; Suppl. Fig. 3c (for Fig. 4c), peptide(-) 11.7, 26 °C (Maximum) 28.9): 37.9; Freq of responder (%) [1]: 5.9%; Resp: number of responders (individuals with epitope-specific CD8+ T cells) [1]: one; IFNg-producing cells among CD8 T cells (%) [1, 22]: 0%; IFNg-producing cells among CD8 T cells (%) [1, 23]: 0%; IFNg-producing cells among CD8 T cells (%) [1, 24]: 0.283%; IFNg-producing cells among CD8 T cells (%) [1, 25]: 0.024%; IFNg-producing cells among CD8 T cells (%) [1, 26]: 0%; IFNg-producing cells among CD8 T cells (%) [1, 27]: 0.253%; IFNg-producing cells among CD8 T cells (%) [1, 28]: 0%; IFNg-producing cells among CD8 T cells (%) [1, 29]: 0%
